Reference: patent publication US20210380930A1, “METHODS, APPARATUS AND KITS FOR BACTERIAL CELL LYSIS” (TECHNISCHE UNIVERSITÄT WIEN, priority 2018, published 2021)
Read-outs that look alike come from different tables or passages of the source.

Test system: Enterococcus faecalis type strain NCTC 775
Experiment: Cell lysis experiments with ILs, released DNA quantified by ENT-qPCR
Type: cell-based

| SMILES | 23S rRNA gene copies in 2.5 μl of the DNA extracts | cell lysis efficiency with varying IL concentrations | cell lysis efficiency with varying IL concentrations (IL from 90% (w/v) to 10% (w/v), same extraction procedure) |
| --- | --- | --- | --- |
| CCCCCC(=O)[O-].C[N+](C)(C)CCO [[Cho]Hex, Choline hexanoate] | ~6.49±0.11 | slightly improved towards a concentration of 50% (w/v), only decreasing with lower concentrations of 30% (w/v) and 10% (w/v) | – |
| CC(=O)[O-].CCn1cc[n+](C)c1 [[C2mim]OAc, 1-Ethyl-3-methylimidazollum acetate] | ~6.48±0.02 | – | almost steadily decreased with its respective concentration |
